The text below walks through data of patent US9889122B2, “Positive allosteric modulators of nicotinic acetylcholine receptor” (H. Lundbeck A/S, priority 2011, dated 2018).

In the assay the target is T1, human α7 receptor (Homo sapiens, UniProt P36544).
T1 construct: host or cells: rat GH4C1 cell line
T1 sequence (P36544 23-502): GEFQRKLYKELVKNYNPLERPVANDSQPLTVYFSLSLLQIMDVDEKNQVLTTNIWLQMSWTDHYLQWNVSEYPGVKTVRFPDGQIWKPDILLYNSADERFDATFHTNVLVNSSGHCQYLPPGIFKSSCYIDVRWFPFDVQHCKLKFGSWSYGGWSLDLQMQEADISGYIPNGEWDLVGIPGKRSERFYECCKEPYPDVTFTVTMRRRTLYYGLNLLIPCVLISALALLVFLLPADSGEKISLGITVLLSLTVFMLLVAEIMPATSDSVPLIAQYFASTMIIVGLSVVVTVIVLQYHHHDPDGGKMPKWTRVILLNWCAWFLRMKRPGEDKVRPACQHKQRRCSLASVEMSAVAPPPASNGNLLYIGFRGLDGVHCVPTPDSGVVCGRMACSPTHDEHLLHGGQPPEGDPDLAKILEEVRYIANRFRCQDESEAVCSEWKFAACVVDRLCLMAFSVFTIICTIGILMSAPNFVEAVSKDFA
In words: α7 NNR flux assay (FDSS Ca assay, Calcium-4 dye, positive allosteric modulation of acetylcholine response). In kind it is cell-based. The following applies: human α7 receptor stably expressed in rat GH4C1 cell line; acetylcholine 20 μM (~EC100); % modulation relative to reference PNU-120596 set to 100%. As for the experimental part: The nicotinic acetylcholine receptor α7 is a calcium-permeable ion channel, whose activity can be measured by over expression in mammalian cells or oocytes in this version of the assay, the human α7 receptor is stably expressed in the rat GH4C1 cell line. The assay was used to identify positive allosteric modulators (PAMs) of the α7 receptor. Activation of the channel was measured by loading cells with the calcium-sensitive fluorescent dye Calcium-4 (Assay kit from Molecular Devices), and then measuring real-time changes in fluorescence upon treatment with test compounds.
The cell line ChanClone GH4C1-nAChRalpha7 from Genionics was seeded from frozen stock in 384-well plates in culture media 2-3 days before experiment to form an approximately 80% confluent layer on the day of experiment.
Two or three days before the experiment the cells were seeded in 384 well plates from Greiner bio-one (781946, CELLCOAT, Poly-D-Lysine, black, μClear).
The cells were seeded in 384 well plates with 30 μL/well (30000 cells/well) while stirring the cell suspension or otherwise preventing the cells from precipitating.
The loading buffer was 5% v/v Calcium-4 Kit and 2.5 mM Probenecid in assay buffer.
Culture media were removed from the cell plates and 20 μL loading buffer was added in each well. The cell plates were placed in trays and incubated 90 minutes in the incubator (37° C.). Thereafter the plates were incubated 30 minutes at room temperature, still protected from light.
The assay buffer was HBSS with 20 mM HEPES, pH 7.4 and 3 mM CaCl2.
200 nL 10 mM compound solution in DMSO was diluted in 50 μL assay buffer. The final test concentrations in the cell plates were 20-10-5-2.5-1:25-0.625-0.312-0.156-0.078-0.039 μM. Assay buffer and 3 μM PNU-120596 were used for control.
The agonist acetylcholine was added to a final concentration of 20 μM (˜EC100).
In the FDSS7000 the Ex480-Em540 was measured with 1 second intervals. The baseline was made of 5 frames before addition of test compounds, and 95 frames more were made before addition of acetylcholine. The measurement stopped 30 frames after the 2nd addition. Raw data for each well were collected as “the maximum fluorescence count” in the interval 100-131 seconds and as “the average fluorescence count” in the interval 96-100 seconds. The positive allosteric modulation in the 2nd addition was the enhancement of agonist response with test compound compared to agonist alone.
Results were calculated as % modulation of test compound compared to the reference PNU-120596 set to 100%.
For `N#Cc1ccc([C@H](CO)NC(=O)[C@H]2C[C@@H]2c2ccccc2)nc1` [Compound 23, (1S,2S)-2-Phenyl-cyclopropanecarboxylic acid [(R)-1-(5-cyano-pyridin-2-yl)-2-hydroxy-ethyl]-amide], the EC50 amounted to 7.6 µM.

Consider `[2H]C([2H])(C)Oc1ccc([C@H](CO)NC(=O)[C@H]2C[C@@H]2c2cccc(F)c2)cn1` [Compound 32, (1S,2S)-2-(3-Fluoro-phenyl)-cyclopropanecarboxylic acid [(R)-1-(6-(1,1-d2)-ethoxy-pyridin-3-yl)-2-hydroxy-ethyl]-amide], for which the EC50 was found to be 0.53 µM.

For `[2H]C([2H])(C)Oc1ccc([C@H](CO)NC(=O)[C@H]2C[C@@H]2c2ccccc2)cn1` [Compound 36, (1S,2S)-2-Phenyl-cyclopropanecarboxylic acid [(R)-1-(6-(1,1-d2)-ethoxy-pyridin-3-yl)-2-hydroxy-ethyl]-amide], the EC50 came to 1.6 µM.

On to `[2H]C([2H])([2H])C([2H])([2H])Oc1ccc([C@H](CO)NC(=O)[C@H]2C[C@@H]2c2ccccc2)cn1` [Compound 38, (1S,2S)-2-Phenyl-cyclopropane carboxylic acid [(R)-1-(6-(1,1,2,2-d5)-ethoxy-pyridin-3-yl)-2-hydroxy-ethyl]-amide], for which the EC50 is 0.97 µM.

Regarding `O=C(N[C@@H](CO)c1ccc(O[C@H]2CCOC2)nc1)[C@H]1C[C@@H]1c1ccccc1` [Compound 44, (1S,2S)—N-[(1R)-2-hydroxy-1-[6-[(3S)-tetrahydrofuran-3-yl]oxy-3-pyridyl]ethyl]-2-phenyl-cyclopropanecarboxamide], the EC50 worked out at 4.6 µM.

For the compound `CCc1ccc([C@H](C)NC(=O)[C@H]2C[C@@H]2c2ccccc2)cn1` [Compound 8, (1S,2S)-2-Phenyl-cyclopropanecarboxylic acid [(S)-1-(6-ethyl-pyridin-3-yl)-ethyl]-amide], the EC50 turned out to be 3.7 µM.

Turning to `Cc1ccc([C@H](C)NC(=O)[C@H]2C[C@@H]2c2ccccc2)cn1` [Compound 4, (1S,2S)-2-Phenyl-cyclopropanecarboxylic acid [(S)-1-(6-methyl-pyridin-3-yl)-ethyl]-amide], the EC50 amounted to 8.1 µM.

For the compound `Cc1ccc([C@H](CO)NC(=O)[C@H]2C[C@@H]2c2ccccc2)cn1` [Compound 25, (1S,2S)-2-Phenyl-cyclopropanecarboxylic acid [(R)-2-hydroxy-1-(6-methyl-pyridin-3-yl)-ethyl]-amide], the EC50 was found to be 7.3 µM.

Turning to `C[C@H](NC(=O)[C@H]1C[C@@H]1c1ccccc1)c1ccc(OCC(F)(F)F)nc1` [Compound 10, (1S,2S)-2-Phenyl-cyclopropanecarboxylic acid {(S)-1-[6-(2,2,2-trifluoro-ethoxy)-pyridin-3-yl]-ethyl}-amide], the EC50 came out at 1.9 µM.

For `COc1ccc([C@H](C)NC(=O)[C@H]2C[C@@H]2c2ccccc2)cn1` [Compound 3, (S, 2S)-2-Phenyl-cyclopropanecarboxylic acid-[(S)-1-(6-methoxy-pyridin-3-yl)-ethyl]-amide], the concentration giving a half-maximal response (EC50) was found to be 5.8 µM.

As to `CCCOc1ccc([C@H](CO)NC(=O)[C@H]2C[C@@H]2c2cccc(F)c2)cn1` [Compound 29, (1S,2S)-2-(3-Fluoro-phenyl)-cyclopropanecarboxylic acid [(R)-2-hydroxy-1-(6-propoxy-pyridin-3-yl)-ethyl]-amide], the EC50 was 0.86 µM.

In the case of `COc1ccc([C@H](CO)NC(=O)[C@H]2C[C@@H]2c2ccccc2)cn1` [Compound 24, (1S,2S)-2-Phenyl-cyclopropanecarboxylic acid [(R)-2-hydroxy-1-(6-methoxy-pyridin-3-yl)-ethyl]-amide], the concentration for a half-maximal effect (EC50) is 5.2 µM.

Regarding `CCOc1ccc([C@H](CO)NC(=O)[C@H]2C[C@@H]2c2cccc(F)c2)cn1` [Compound 27, (1S,2S)-2-(3-Fluoro-phenyl)-cyclopropanecarboxylic acid [(R)-1-(6-ethoxy-pyridin-3-yl)-2-hydroxy-ethyl]-amide], the EC50 came out at 0.39 µM.

Regarding `CCOc1ccc([C@H](CO)NC(=O)[C@H]2C[C@@H]2c2ccccc2)nc1` [Compound 52, (1S,2S)-2-Phenyl-cyclopropanecarboxylic acid [(R)-1-(5-ethoxy-pyridin-2-yl)-2-hydroxy-ethyl]-amide], the concentration giving a half-maximal response (EC50) came to 2 µM.

With `COCCOc1ccc([C@H](C)NC(=O)[C@H]2C[C@@H]2c2ccccc2)cn1` [Compound 11, (1S,2S)-2-Phenyl-cyclopropanecarboxylic acid {(S)-1-[6-(2-methoxy-ethoxy)-pyridin-3-yl]-ethyl}-amide], the EC50 was found to be 3.8 µM.

`C[C@H](NC(=O)[C@H]1C[C@@H]1c1ccccc1)c1ccc(C#N)nc1` [Compound 5, (1S,2S)-2-Phenyl-cyclopropanecarboxylic acid [(S)-1-(6-cyano-pyridin-3-yl)-ethyl]-amide]: the concentration for a half-maximal effect (EC50) turned out to be 7.7 µM.

As for `CC(C)Oc1ccc([C@H](CO)NC(=O)[C@H]2C[C@@H]2c2ccccc2)cn1` [Compound 26, (1S,2S)-2-Phenyl-cyclopropanecarboxylic acid [(R)-2-hydroxy-1-(6-isopropoxy-pyridin-3-yl)-ethyl]-amide], the EC50 is 0.39 µM.

Turning to `CCOc1ccc([C@H](CO)NC(=O)[C@H]2C[C@@H]2c2ccccc2)cn1` [Compound 33, (1S,2S)-2-Phenyl-cyclopropanecarboxylic acid [(R)-1-(6-ethoxy-pyridin-3-yl)-2-hydroxy-ethyl]-amide], the EC50 was determined as 1 µM.

Turning to `CC(C)Oc1ccc([C@H](C)NC(=O)[C@H]2C[C@@H]2c2ccccc2)cn1` [Compound 1, (1S,2S)-2-Phenyl-cyclopropanecarboxylic acid [(S)-1-(6-isopropoxy-pyridin-3-yl)-ethyl]-amide], the EC50 was 0.67 µM.

With `CCOc1ccc([C@H](C)NC(=O)[C@H]2C[C@@H]2c2ccccc2)cn1` [Compound 7, (1S,2S)-2-Phenyl-cyclopropanecarboxylic acid [(S)-1-(6-ethoxy-pyridin-3-yl)-ethyl]-amide], the 50% effective concentration (EC50) stood at 0.96 µM.

Regarding `C[C@H](NC(=O)[C@H]1C[C@@H]1c1ccccc1)c1cnc2c(c1)OCO2` [Compound 15, (1S,2S)-2-Phenyl-cyclopropanecarboxylic acid ((S)-1-[1,3]dioxolo[4,5-b]pyridin-6-yl-ethyl)-amide], the EC50 is 5.6 µM.

Turning to `CCOc1ccc([C@H](COC)NC(=O)[C@H]2C[C@@H]2c2ccccc2)cn1` [Compound 46, (1S,2S)-2-Phenyl-cyclopropanecarboxylic acid [(R)-1-(6-ethoxy-pyridin-3-yl)-2-methoxy-ethyl]-amide], the half-maximal effective concentration (EC50) is 0.46 µM.

`C[C@H](NC(=O)[C@H]1C[C@@H]1c1ccccc1)c1ccc(Cl)nc1` [Compound 18, (1S,2S)-2-Phenyl-cyclopropanecarboxylic acid [(S)-1-(6-chloro-pyridin-3-yl)-ethyl]-amide]: the EC50 worked out at 3.7 µM.

In the case of `[2H]C([2H])([2H])COc1ccc([C@H](CO)NC(=O)[C@H]2C[C@@H]2c2cccc(F)c2)cn1` [Compound 39, (1S,2S)-2-(3-Fluoro-phenyl)-cyclopropanecarboxylic acid [(R)-1-(6-(2,2,2-d3)-ethoxy-pyridin-3-yl)-2-hydroxy-ethyl]-amide], the half-maximal effective concentration (EC50) worked out at 0.72 µM.

As for `[2H]C([2H])([2H])COc1ccc([C@H](CO)NC(=O)[C@H]2C[C@@H]2c2ccccc2)cn1` [Compound 31, (1S,2S)-2-Phenyl-cyclopropanecarboxylic acid [(R)-1-(6-(2,2,2-d3)-ethoxy-pyridin-3-yl)-2-hydroxy-ethyl]-amide], the EC50 was found to be 1.7 µM.

Regarding `O=C(N[C@@H](CO)c1ccc(OC2CCC2)nc1)[C@H]1C[C@@H]1c1ccccc1` [Compound 40, (1S,2S)-2-Phenyl-cyclopropanecarboxylic acid [(R)-1-(6-cyclobutoxy-pyridin-3-yl)-2-hydroxy-ethyl]-amide], the EC50 came to 0.89 µM.

As to `C[C@H](NC(=O)[C@H]1C[C@@H]1c1ccccc1)c1ccc(O[C@H]2CCOC2)nc1` [Compound 13, (1S,2S)-2-Phenyl-cyclopropanecarboxylic acid [(S)-1-{6-[(S)-(tetrahydro-furan-3-yl)oxy]-pyridin-3-yl]-ethyl}-amide], the half-maximal effective concentration (EC50) was 1.6 µM.

Take `[2H]C([2H])([2H])C([2H])([2H])Oc1ccc([C@H](CO)NC(=O)[C@H]2C[C@@H]2c2ccc(F)cc2)cn1` [Compound 34, (1S,2S)-2-(4-Fluoro-phenyl)-cyclopropanecarboxylic acid [(R)-1-(6-(1,1,2,2,2-d5)-ethoxy-pyridin-3-yl)-2-hydroxy-ethyl]-amide]: the concentration for a half-maximal effect (EC50) came to 0.7 µM.

For orientation: EC50 means the concentration at which the effect is half-maximal.
